In US7919671B2, “Method for testing a compound for a therapeutic effect and a diagnostic method” (Chempath Oy, priority 2004, dated 2011):

target: T1, PAP purified from human spermatic fluid (Homo sapiens, UniProt P15309); assay: malachite green assay of the PI(3)P phosphatase activity of PAP; type: biochemical; details: 50 mM MES buffer, pH 6.5; 0.25 μg PAP per reaction; 37° C., 2 and 5 min
T1 construct: purified from human spermatic fluid as previously described; from tissue; host or cells: human spermatic (seminal) fluid
T1 sequence (P15309 33-386): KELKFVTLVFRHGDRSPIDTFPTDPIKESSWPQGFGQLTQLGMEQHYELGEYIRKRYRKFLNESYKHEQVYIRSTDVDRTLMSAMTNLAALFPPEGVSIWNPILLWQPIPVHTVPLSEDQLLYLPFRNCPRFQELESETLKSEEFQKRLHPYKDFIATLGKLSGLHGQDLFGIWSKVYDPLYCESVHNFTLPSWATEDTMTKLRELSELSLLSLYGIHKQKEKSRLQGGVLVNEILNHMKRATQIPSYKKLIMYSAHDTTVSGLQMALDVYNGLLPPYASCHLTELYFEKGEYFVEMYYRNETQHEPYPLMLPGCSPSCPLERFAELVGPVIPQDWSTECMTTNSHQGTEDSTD
Procedure: (E) PI(3)P phosphatase activity of PAP. Phosphatase assays containing 0.01 μg/μl PAP with varying amounts of PI(3)P or buffer were incubated for 5 min at 37° C. and free phosphate was measured by malachite green assay. Initial velocities were calculated from these time courses and plotted against the respective substrate concentration.
To confirm that PAP hydrolyses PI(3)P the lipid phosphatase activity of PAP towards PI(3)P was studied. […] Being sigmoidal, the kinetic curve was inconsistent with Michaelis-Menten kinetics.
A malachite green assay (BIOMOL GREEN™, BIOMOL Research Laboratories, Inc.) adapted to a 96-well format was used to measure the released free-phosphate from PI(3)P (Echelon Bioscience Inc.). Briefly, the reaction (total volume of 25 μl) containing 50 mM MES buffer, pH 6.5 and an indicated amount of PI(3)P, was initiated by adding the PAP (0.25 μg per reaction) purified from human spermatic fluid as previously described (specific activity of the enzyme 397 μmol min^−1 mg^−1) (Vihko et al. 1978, Clin. Chem. 24, 1915-1919). After incubation at 37° C. for 2 and 5 min the reaction was terminated by adding 100 μl of BIOMOL GREEN reagent. The green color was allowed to develop for 20 min at room temperature and absorbance was measured at 650 nm. The phosphate released was quantified by comparing to inorganic phosphate standards. […]

Compound | lipid phosphatase activity of PAP towards the lipid (use as a substrate)
CCCCCCCCCCCCCCCC(=O)OC[C@H](COP(=O)(O)O[C@@H]1[C@H](O)[C@H](OP(=O)(O)O)[C@@H](O)[C@H](O)[C@H]1O)OC(=O)CCCCCCCCCCCCCCC [PI(3)P, phosphatidylinositol 3-phosphate] | utilizes PI(3)P as a substrate

same assay, conditions: 50 mM MES buffer, pH 6.5; 37° C.; inconsistent with Michaelis-Menten kinetics

Compound | shape of the kinetic curve (initial velocity against substrate concentration)
CCCCCCCCCCCCCCCC(=O)OC[C@H](COP(=O)(O)O[C@@H]1[C@H](O)[C@H](OP(=O)(O)O)[C@@H](O)[C@H](O)[C@H]1O)OC(=O)CCCCCCCCCCCCCCC [PI(3)P, phosphatidylinositol 3-phosphate] | sigmoidal

target: T2, human PAP (Homo sapiens, UniProt P15309); assay: protein overlay assay of PAP binding to immobilized phospholipids (PIP Strips); details: 100 pmole lipid per spot on nitrocellulose strip; 10 μg/ml or 50 μg/ml human PAP, overnight at +4° C.
T2 sequence (P15309 33-386): T1 sequence (P15309 33-386)
Procedure: (D) The phospholipid binding properties of PAP. Nitrocellulose-immobilized phospholipids at 100 pmole per spot. The lipids, indicated by dashed circles, are: 1. lysophosphatidic acid, 2. lysophosphocholine, 3. PI; 4. PI(3)P; 5. PI(4)P; 6. PI(5)P; 7. phosphatidyletanolamine; 8. phosphatidylcholine; 9. spingosine-1-phosphate; 10. PI(3,4)P2; 11. PI(3,5)P2; 12. PI(4,5)P2; 13. PI(3,4,5)P3; 14. phosphatidic acid; 15. phosphatidylserine; 16. blank. The strip was incubated with human PAP at concentration 10 μg/ml.
The interaction between PAP and PI lipids was investigated using protein overlay assay.
The binding of human PAP to phospholipids was screened using PIP Strips™ (Echelon Bioscience). 100 pmole of lysophosphatidic acid, lysophosphocholine, PI, PI(3)P, PI(4)P, PI(5)P, phosphatidyletanolamine, phosphatidylcholine, sphingosine-1-phosphate, PI(3,4)P2, PI(3,5)P2, PI(4,5)P2, PI(3,4,5)P3, phosphatidic acid, and phosphatidylserine was immobilized on a nitrocellulose strip. The strip was incubated with 10 μg/ml or 50 μg/ml human PAP in 4% non-fat dry milk (Valio) in TBS-T overnight at +4° C. The bound PAP was detected using polyclonal PAP antibody produced by us (Vihko et al., 1978, Clin. Chem. 24, 1915-1919), alkalinephosphatase conjugated secondary antibody (Sigma), and the NBT/BCIP color reaction assay (Promega).

Compound | binding of PAP to the lipid
PI(3,4)P2 | no affinity
PI(3,4,5)P3 | no affinity
PI(4,5)P2 | no affinity
PI(5)P | no affinity
Phosphatidylinositol [PI] | no affinity
lysophosphatidic acid | no affinity
lysophosphocholine | no affinity
phosphatidic acid | no affinity
phosphatidylcholine | no affinity
phosphatidylinositol 4-phosphate [PI(4)P] | no affinity

The remaining lines, values ahead:

binding of PAP to the lipid | Compound
binds strongly | CCCCCCCCCCCCCCCC(=O)OC[C@H](COP(=O)(O)O[C@@H]1[C@H](O)[C@H](OP(=O)(O)O)[C@@H](O)[C@H](O)[C@H]1O)OC(=O)CCCCCCCCCCCCCCC [PI(3)P, phosphatidylinositol 3-phosphate]
no affinity | CCCCCCCCCCCCC/C=C/[C@@H](O)[C@@H](N)COP(=O)(O)O [sphingosine-1-phosphate]
no affinity | PI(3,5)P2
no affinity | phosphatidylethanolamine
no affinity | phosphatidylserine
